The values that follow come from PubChem BioAssay AID1794813.

Several values for one entry are separate records, joined by “and”; a condition that tells them apart may be missing. Equal entries are not always repeated.

The assay deals with Sodium-dependent phosphate transport protein 2A (Homo sapiens) (UniProt Q06495). As to the kind of experiment: PubChem AID 1794813. The note with it: HEK293 JumpIn SLC34A1, FLIPR membrane potential dye.
Chain of Sodium-dependent phosphate transport protein 2A (Homo sapiens) (Q06495 whole entry, looked up): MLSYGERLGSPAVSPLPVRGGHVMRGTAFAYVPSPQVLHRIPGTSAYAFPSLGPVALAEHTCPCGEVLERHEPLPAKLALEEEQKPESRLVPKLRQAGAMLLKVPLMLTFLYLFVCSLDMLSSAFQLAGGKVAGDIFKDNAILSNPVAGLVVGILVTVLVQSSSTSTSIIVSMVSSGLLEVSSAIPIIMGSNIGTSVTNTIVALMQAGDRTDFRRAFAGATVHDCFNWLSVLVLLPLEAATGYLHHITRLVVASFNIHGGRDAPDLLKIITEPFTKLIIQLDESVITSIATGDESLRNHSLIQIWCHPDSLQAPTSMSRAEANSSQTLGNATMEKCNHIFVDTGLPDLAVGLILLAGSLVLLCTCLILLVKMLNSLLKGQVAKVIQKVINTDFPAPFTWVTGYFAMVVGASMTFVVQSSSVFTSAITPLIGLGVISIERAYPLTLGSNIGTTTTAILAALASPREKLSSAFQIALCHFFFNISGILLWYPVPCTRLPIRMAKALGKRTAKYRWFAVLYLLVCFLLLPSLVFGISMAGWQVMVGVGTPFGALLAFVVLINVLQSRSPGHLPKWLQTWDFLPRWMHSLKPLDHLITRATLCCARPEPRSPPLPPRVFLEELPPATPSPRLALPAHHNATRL

With `O=P(O)(O)O`, the EC50 (substrate-evoked depolarization, activation) is 32 µM and 39 µM.
